According to patent US20030109550A1, “Substituted indazole compounds for the treatment of inflammation” (priority 2001, published 2003):

Columns and labels:
[1] = molecular target: T1, IKK heterodimer (rhIKK1/IKK2 heterodimer) (Homo sapiens, UniProt O14920+O15111); assay: IKK heterodimer Resin Enzyme Assay; format: biochemical; conditions: biotinylated IκBα peptide 5 μM, 1 μM ATP, 25° C., 30 min; read-out: HetD (IKK heterodimer Resin Enzyme Assay expressed as IC50)
T1 construct: made in house; host or cells: insect cells (baculovirus coinfection; SF9 cell paste)
T1 sequence (O15111 1-745): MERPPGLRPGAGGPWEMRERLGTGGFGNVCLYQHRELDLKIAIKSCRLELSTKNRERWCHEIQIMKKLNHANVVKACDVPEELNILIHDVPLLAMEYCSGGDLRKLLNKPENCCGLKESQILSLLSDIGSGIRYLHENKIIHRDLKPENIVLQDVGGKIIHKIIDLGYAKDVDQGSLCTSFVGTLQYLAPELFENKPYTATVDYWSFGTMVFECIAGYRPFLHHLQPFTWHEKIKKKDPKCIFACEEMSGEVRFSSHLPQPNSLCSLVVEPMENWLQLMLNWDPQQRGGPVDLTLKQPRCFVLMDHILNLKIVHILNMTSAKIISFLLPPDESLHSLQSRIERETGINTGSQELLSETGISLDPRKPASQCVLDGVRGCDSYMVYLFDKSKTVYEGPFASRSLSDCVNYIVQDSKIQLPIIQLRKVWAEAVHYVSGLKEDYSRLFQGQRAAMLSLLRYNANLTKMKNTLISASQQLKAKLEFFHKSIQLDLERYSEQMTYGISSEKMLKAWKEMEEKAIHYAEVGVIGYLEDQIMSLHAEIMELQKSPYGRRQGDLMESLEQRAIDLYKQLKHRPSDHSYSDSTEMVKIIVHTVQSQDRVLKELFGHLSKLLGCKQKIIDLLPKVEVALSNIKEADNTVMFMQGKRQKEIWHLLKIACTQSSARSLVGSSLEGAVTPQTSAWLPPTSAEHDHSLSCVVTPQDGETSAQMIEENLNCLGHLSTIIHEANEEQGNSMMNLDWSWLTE
T1 sequence (O14920 1-756): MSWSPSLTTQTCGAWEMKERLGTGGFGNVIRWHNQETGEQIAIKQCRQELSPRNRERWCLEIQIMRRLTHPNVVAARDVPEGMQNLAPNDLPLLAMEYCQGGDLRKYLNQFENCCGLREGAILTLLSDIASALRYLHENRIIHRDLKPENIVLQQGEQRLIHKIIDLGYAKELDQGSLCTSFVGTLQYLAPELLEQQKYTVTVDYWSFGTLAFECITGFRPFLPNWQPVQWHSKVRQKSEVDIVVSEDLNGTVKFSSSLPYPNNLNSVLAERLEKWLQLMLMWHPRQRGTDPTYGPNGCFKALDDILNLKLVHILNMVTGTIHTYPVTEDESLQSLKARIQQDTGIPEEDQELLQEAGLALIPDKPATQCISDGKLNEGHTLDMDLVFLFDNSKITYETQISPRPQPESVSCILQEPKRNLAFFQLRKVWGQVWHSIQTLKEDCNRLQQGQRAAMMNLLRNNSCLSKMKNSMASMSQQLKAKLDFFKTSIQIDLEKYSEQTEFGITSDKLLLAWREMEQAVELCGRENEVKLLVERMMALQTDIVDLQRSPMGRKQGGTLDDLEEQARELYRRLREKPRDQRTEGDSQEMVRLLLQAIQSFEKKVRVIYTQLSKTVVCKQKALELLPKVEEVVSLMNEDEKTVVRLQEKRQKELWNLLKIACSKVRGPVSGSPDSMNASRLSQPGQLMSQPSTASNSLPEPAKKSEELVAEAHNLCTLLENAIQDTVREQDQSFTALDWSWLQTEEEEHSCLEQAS
Source text: cDNAs of human IKK1 and IKK2 were amplified by reverse transcriptase-polymerase chain reaction from human placental RNA (Clonetech). hIKK1 was subcloned into pFastBac HTa (Life Technologies) and expressed as N-terminal His6-tagged fusion protein. The hIKK2 cDNA was amplified using a reverse oligonucleotide primer which incorporated the peptide sequence for a FLAG-epitope tag at the C-terminus of the IKK2 coding region (DYKDDDDKD). The hIKK2:FLAG cDNA was subcloned into the baculovirus vector pFastBac. The rhIKK2 ([…]) mutant was constructed in the same vector used for wild type rhIKK2 using a QuikChange™ mutagenesis kit (Stratagene) Viral stocks of each construct were used to infect insect cells grown in 40L suspension culture. […] Cell lysates were stored at −80° C. until purification of the recombinant proteins was undertaken as described in the succeeding sections.
Isolation of rhIKK1/IKK2 Heterodimer
The heterodimer enzyme was produced by coinfection in a baculovirus system (FLAG IKK2/IKK1 His; MOI=0.1 and I=72 hrs). Infected cells were centrifuged and the cell pellet (10.0 g) was suspended in 50 ml of buffer A. The protein suspension was microfluidized and centrifuged at 100,000×g for 45 min. Imidazole was added to the supernatant to a final concentration of 10 mM. The protein was allowed to bind 25 ml of Ni-NTA resin by mixing for 2 hrs. The protein-resin slurry was poured into a 25 ml column and washed with 250 ml of buffer A containing 10 mM imidazole followed by 125 ml of buffer A containing 50 mM imidazole. Buffer A, containing 300 mM imidazole, was then used to elute the protein. A 75 ml pool was collected and NP-40 was added to a final concentration of 0.1%. The protein solution was then dialyzed against buffer B. The dialyzed heterodimer enzyme was then allowed to bind to 25 ml of anti-FLAG M2 agarose affinity gel overnight with constant mixing. The protein-resin slurry was then centrifuged for 5 min at 2,000 rpm. The supernatant was collected and the resin re-suspended in 100 ml of buffer C containing 0.1% NP-40. The resin was washed with 375 ml of buffer C containing 0.1% NP-40. The protein-resin was poured into a 25 ml column and the enzyme eluted using buffer B containing FLAG peptide. Enzyme fractions (100 ml) were collected and concentrated to 20 ml using an Amicon membrane with molecular weight cut-off of 30 kDa. Bovine serum albumin was added to the concentrated enzyme to final concentration of 0.1%. The enzyme was then aliquoted and stored at −80° C.
IKK heterodimer Resin Enzyme Assay
IKK heterodimer kinase activity was measured using a biotinylated IκBα peptide (Gly-Leu-Lys-Lys-Glu-Arg-Leu-Leu-Asp-Asp-Arg-His-Asp-Ser32-Gly-Leu-Asp-Ser36-Met-Lys-Asp-Glu-Glu) (American Peptide Co.). […] ATP was measured using a Top-Count NXT (Packard).

Row | Compound | melting point [°C] | IC50 [1] [µM]
1 | COc1ccc(-c2ccc3c(C(N)=O)nn(-c4ccc(S(N)(=O)=O)cc4)c3c2)cc1 [Example 1, 1-[4-(aminosulfonyl)phenyl]-6-(4-methoxyphenyl)-1H-indazole-3-carboxamide] | 258 to 259 | > 100
2 | CC(C)(C)c1ccc(-c2ccc3c(C(N)=O)nn(-c4ccc(S(N)(=O)=O)cc4)c3c2)cc1 [Example 4, 1-[4-(aminosulfonyl)phenyl]-6-(4-tert-butylphenyl)-1H-indazole-3-carboxamide] | 262 to 263 | > 100
3 | Cc1cc(-c2ccc3c(C(N)=O)nn(-c4ccc(S(N)(=O)=O)cc4)c3c2)ccc1F [Example 5, 1-[4-(aminosulfonyl)phenyl]-6-(4-fluoro-3-methylphenyl)-1H-indazole-3-carboxamide] | 300 to 302 | 
4 | NC(=O)c1nn(-c2ccc(S(N)(=O)=O)cc2)c2ccncc12 [Example 8, 1-[4-(aminosulfonyl)phenyl]-1H-pyrazolo[4,3-c]pyridine-3-carboxamide] | 301 to 302 | 
5 | Cc1ccc2c(C(N)=O)nn(-c3ccc(S(N)(=O)=O)cc3)c2c1 [Example 9, 1-[4-(aminosufony)phenyl]-6-methyl-1H-indazole-3-carboxamide] | 251 to 252 | 
6 | NC(=O)c1nn(-c2ccc(S(N)(=O)=O)cc2)c2cc(Cc3ccccc3)ccc12 [Example 12, 1-[4-(aminosulfonyl)phenyl]-6-benzyl-1H-indazole-3-carboxamide] | 207 to 209 | 
7 | CCOc1ccc2c(C(N)=O)nn(-c3ccc(S(N)(=O)=O)cc3)c2c1 [Example 13, 1-[4-(aminosulfonyl)phenyl]-6-ethoxy-1H-indazole-3-carboxamide] | 213 to 214 | 
8 | CCc1ccc2c(C(N)=O)nn(-c3ccc(S(N)(=O)=O)cc3)c2c1 [Example 14, 1-[4-(aminosulfonyl)phenyl]-6-ethyl-1H-indazole-3-carboxamide] | 249 to 251 | 

Second part, the compound after the results:

Row | melting point [°C] | IC50 [1] [µM] | Compound
9 | 314 to 315 |  | NC(=O)c1nn(-c2ccc(S(N)(=O)=O)cc2)c2cc(-c3ccc(F)cc3)ccc12 [Example 2, 1-[4-(aminosulfonyl)phenyl]-6-(4-fluorophenyl)-1H-indazole-3-carboxamide]
10 | 261 to 263 |  | Cc1cccc(-c2ccc3c(C(N)=O)nn(-c4ccc(S(N)(=O)=O)cc4)c3c2)c1 [Example 3, 1-[4-(aminosulfonyl)phenyl]-6-(3-methylphenyl)-1H-indazole-3-carboxamide]
11 | 237 to 238 | > 100 | CN(C)c1cccc(-c2ccc3c(C(N)=O)nn(-c4ccc(S(N)(=O)=O)cc4)c3c2)c1 [Example 6, 1-[4-(aminosulfonyl)phenyl]-6-[3-(dimethylamino)phenyl]-1H-indazole-3-carboxamide]
12 | 159 to 160 |  | CNc1cccc(-c2ccc3c(C(N)=O)nn(-c4ccc(S(N)(=O)=O)cc4)c3c2)c1 [Example 7, 1-[4-(aminosulfonyl)phenyl]-6-[3-(methylamino)phenyl]-1H-indazole-3-carboxamide]
13 | 232 to 234 |  | NC(=O)c1nn(-c2ccc(S(N)(=O)=O)cc2)c2cc(-c3ccccc3)ccc12 [Example 10, 1-[4-(aminosulfonyl)phenyl]-6-phenyl-1H-indazole-3-carboxamide]
14 | 229 to 230 | 1 | COc1cccc(-c2ccc3c(C(N)=O)nn(-c4ccc(S(N)(=O)=O)cc4)c3c2)c1 [Example 11, 1-[4-(aminosulfonyl)phenyl]-6-(3-methoxyphenyl)-1H-indazole-3-carboxamide]
15 | 310 to 313 |  | NC(=O)c1nn(-c2ccc(S(N)(=O)=O)cc2)c2cc(-c3cccnc3)ccc12 [Example 15, 1-[4-(aminosulfonyl)phenyl]-6-pyridin-3-yl-1H-indazole-3-carboxamide]
